Measurements taken from patent US10752595B2, “Crystalline forms of a bromodomain and extraterminal protein inhibitor drug, processes for preparation thereof, and use thereof” (Crystal Pharmaceutical (Suzhou) Co., Ltd., priority 2016, dated 2020).
In brackets after ≈: the same amount, converted by molar mass. Entries after “also recorded” stand apart in the source; their conditions may differ.

Tests used:
[1] = Dissolution test of Form CS1 capsule; assay type: physicochemical; settings: capsule with 50 mg API; HCl (0.1 mol/L), paddle, 900 mL, 75 rpm, 37° C.; at 20 minutes
Procedure: Certain amount of the API, microcrystalline cellulose, croscarmellose sodium according to Table 5.8 and 2 mg of magnesium stearate were weighted and blended for 2 minutes. Flakes were prepared using a manual tablet press at 5 KN pressure with a φ20 mm round tooling. The crushed flakes were manually sieved through 20 mesh sieve. 2 mg of magnesium stearate was added, and then the obtained powder was blended for 1 minute. The mixture was encapsulated into a 1# capsule shell, then the capsule was packed in 35 cc HDPE (high density polyethylene) bottle (one capsule per bottle) containing 1 g of desiccant. The bottle was then sealed by sealing machine. […] Dissolution test was performed on the obtained capsule. The conditions are as follows: Medium: HCl (0.1 mol/L) Method: Paddle Volume: 900 mL Speed: 75 rpm Temperature: 37° C.

[2] = Solubility study: saturated solutions in SGF and FeSSIF, concentration by HPLC; assay type: physicochemical; settings: for Solubility FeSSIF: FeSSIF (fed state simulated intestinal fluids, pH=5.0); for Solubility SGF: SGF (simulated gastric fluids)
From the text: High Performance Liquid Chromatography (HPLC) data in the present disclosure were collected from an Agilent 1260 with Diode Array Detector (DAD). The HPLC method parameters for purity test in the present disclosure are as follows: • 1. Column: Waters XBridge C18 150×4.6 mm, 5 μm • 2. Mobile Phase: A: 0.1% TFA in H2O • B: 0.1% TFA in Acetonitrile
The prepared apabetalone Form CS2 was suspended into SGF (simulated gastric fluids) and FeSSIF (fed state simulated intestinal fluids, pH=5.0) to obtain saturated solutions. After being equilibrated for 1 h and 24 h, concentrations of the saturated solutions were measured by HPLC.
The prepared Form CS8 was suspended into SGF (simulated gastric fluids) and FeSSIF (fed state simulated intestinal fluids, pH=5.0) to obtain saturated solutions. After being equilibrated for 1 h, concentrations of the saturated solutions were measured by HPLC.
The prepared Form CS13 was suspended into SGF (simulated gastric fluids) and FeSSIF (fed state simulated intestinal fluids, pH=5.0) to obtain saturated solutions. After being equilibrated for 1 h, 4 h and 24 h, concentrations of the saturated solutions were measured by HPLC.
The prepared apabetalone Form CS20 was suspended into SGF (simulated gastric fluids) and FeSSIF (fed state simulated intestinal fluids, pH=5.0) to obtain saturated solutions. After being equilibrated for 1 h, 4 h and 24 h, concentrations of the saturated solutions were measured by HPLC.
The prepared solid of apabetalone Form CS1 was suspended into SGF (simulated gastric fluids) and FeSSIF (fed state simulated intestinal fluids, pH=5.0) to obtain saturated solutions. After being equilibrated for 1 h, 4 h and 24 h, concentrations of the saturated solutions were measured by HPLC.
The prepared solid of apabetalone Form CS7 was suspended into SGF (simulated gastric fluids) and FeSSIF (fed state simulated intestinal fluids, pH=5.0) to obtain saturated solutions. After being equilibrated for 1 h, 4 h and 24 h, concentrations of the saturated solutions were measured by HPLC.
The prepared solid of apabetalone Form CS9 was suspended into SGF (simulated gastric fluids) and FeSSIF (fed state simulated intestinal fluids, pH=5.0) to obtain saturated solutions. After being equilibrated for 1 h, 4 h and 24 h, concentrations of the saturated solutions were measured by HPLC.
The prepared solid of apabetalone Form CS11 was suspended into SGF (simulated gastric fluids) and FeSSIF (fed state simulated intestinal fluids, pH=5.0) to obtain saturated solutions. After being equilibrated for 1 h, 4 h and 24 h, concentrations of the saturated solutions were measured by HPLC.
The prepared solid of apabetalone Form CS4 was suspended into SGF (simulated gastric fluids) and FeSSIF (fed state simulated intestinal fluids, pH=5.0) to obtain saturated solutions. After being equilibrated for 1 h, 4 h and 24 h, concentrations of the saturated solutions were measured by HPLC.

[3] = Mechanical stability: manual grinding for 5 minutes, XRPD; assay type: physicochemical; settings: ground manually in a mortar for 5 minutes
Procedure: Certain amount of Form CS1 was placed in a mortar and ground manually for 5 minutes. XRPD of the solid obtained was tested. Certain amount of Form CS4 was placed in a mortar and ground manually for 5 minutes. Crystalline form of the sample was checked by XRPD.

[4] = Formulation study: form stability in the capsule preparation; assay type: physicochemical; settings: capsule with microcrystalline cellulose, croscarmellose sodium, magnesium stearate
Procedure: Certain amount of the API, microcrystalline cellulose, croscarmellose sodium according to Table 5.8 and 2 mg of magnesium stearate were weighted and blended for 2 minutes. Flakes were prepared using a manual tablet press at 5 KN pressure with a φ20 mm round tooling. The crushed flakes were manually sieved through 20 mesh sieve. 2 mg of magnesium stearate was added, and then the obtained powder was blended for 1 minute. The mixture was encapsulated into a 1# capsule shell, then the capsule was packed in 35 cc HDPE (high density polyethylene) bottle (one capsule per bottle) containing 1 g of desiccant. The bottle was then sealed by sealing machine.

[5] = Stability study: open-dish storage in constant temperature and humidity chambers, XRPD and purity check; assay type: physicochemical; settings: for Form change and purity decrease after storage / Purity after storage: open dish
Procedure: Form CS8 was placed in a constant temperature and humidity chamber at 25° C./60% RH for 2 weeks in open dish. Crystalline form of the sample were tested by XRPD and impurity of the sample were checked. […] Crystalline form of the sample were tested by XRPD and impurity of the sample were checked. […] Two samples of apabetalone Form CS1 were placed in constant temperature and humidity chambers at 25° C./60% RH and 40° C./75% RH for 10 months in open dishes. The samples were characterized by XRPD and chemical impurity. […] Three samples of apabetalone Form CS7 were placed in constant temperature and humidity chambers at 25° C./60% RH and 40° C./75% RH for 4 weeks and 80° C. for 1 day in open dishes. Crystalline form of the sample were tested by XRPD and impurity of the sample were checked. […] Two samples of apabetalone Form CS9 were placed in constant temperature and humidity chambers at 25° C./60% RH and 40° C./75% RH for 10 months in open dishes. Crystalline form of the sample were tested by XRPD and impurity of the sample were tested to check the stability of Form CS9. […] Two samples of apabetalone Form CS11 were placed in constant temperature and humidity chambers at 25° C./60% RH and 40° C./75% RH for 6 weeks in open dishes. Crystalline form of the sample were tested by XRPD and impurity of the sample were tested to check the stability of Form CS11. […] Two samples of apabetalone Form CS4 were placed in open dishes in constant temperature and humidity chambers at 25° C./60% RH and 40° C./75% RH for 10 months. Crystalline form of the sample were tested by XRPD and impurity of the sample were tested to check the stability of Form CS4.

[6] = Hygroscopicity by dynamic vapor sorption (DVS); assay type: physicochemical; settings: for Hygroscopicity class: Chinese Pharmacopoeia 2015 criteria, 80% RH; for Hygroscopicity class / Weight Gain under 80% Relative Humidity: 25° C.; for Weight Gain under 80% Relative Humidity: DVS, about 10 mg of sample; for Form change after DVS test (XRPD): XRPD before and after DVS test
Procedure: Dynamic Vapor Sorption (DVS) was measured via a SMS (Surface Measurement Systems Ltd.) intrinsic DVS instrument. Its control software is DVS—Intrinsic control software, and its analysis software is DVS—Intrinsic Analysis software. Typical Parameters for DVS test are as follows: • Temperature: 25° C. • Gas and flow rate: N2, 200 mL/min • dm/dt: 0.002%/min • RH range: 0% RH to 95% RH Dynamic vapor sorption (DVS) was applied to test hygroscopicity of Form CS8 in the present disclosure with about 10 mg of sample. […] Dynamic vapor sorption (DVS) was applied to test hygroscopicity of Form CS1 of the present disclosure with about 10 mg of sample. […] Dynamic vapor sorption (DVS) was applied to test hygroscopicity of Form CS7 of the present disclosure with about 10 mg of samples. Dynamic vapor sorption (DVS) was applied to test hygroscopicity of Form CS9 of the present disclosure with about 10 mg of sample. […] Dynamic vapor sorption (DVS) was applied to test hygroscopicity of Form CS4 of the present disclosure with about 10 mg of sample.

BRD4 of BET family = BRD4 of BET family (Homo sapiens, UniProt O60885); settings: background statement, regulates ApoA-1 expression; cited from earlier work

| Solubility FeSSIF ([2]; equilibrated 1 h) [µg/mL] | Solubility FeSSIF ([2]; equilibrated 4 h) [µg/mL] | Solubility FeSSIF ([2]; equilibrated 24 h) [µg/mL] | Solubility SGF ([2]; equilibrated 1 h) [µg/mL] | Solubility SGF ([2]; equilibrated 4 h) [µg/mL] | Solubility SGF ([2]; equilibrated 24 h) [µg/mL] | Time the form is stable when stored ([5]; 25° C./60% RH) | Purity after storage ([5]; 25° C./60% RH, 1 week) | Purity after storage ([5]; 25° C./60% RH, 2 weeks) | Purity after storage ([5]; 25° C./60% RH, 10 months) | Time the form is stable when stored ([5]; 40° C./75% RH) | Purity after storage ([5]; 40° C./75% RH, 1 week) | Purity after storage ([5]; 40° C./75% RH, 2 weeks) | Purity after storage ([5]; 40° C./75% RH, 10 months) | Hygroscopicity class [6] | Weight Gain under 80% Relative Humidity [6] [%] | Compound | Form change and crystallinity decrease after manual grinding (XRPD) [3] | Form change and purity decrease after storage ([5]; 25° C./60% RH, 10 months) | Form change and purity decrease after storage ([5]; 40° C./75% RH, 10 months) | Form change after DVS test (XRPD) [6] | other results |
| --- | --- | --- | --- | --- | --- | --- | --- | --- | --- | --- | --- | --- | --- | --- | --- | --- | --- | --- | --- | --- | --- |
| 140 (≈ 378 µM) | 110 (≈ 297 µM) | 140 (≈ 378 µM) | 310 (≈ 837 µM) | 290 (≈ 783 µM) | 330 (≈ 891 µM) | at least 10 months | 99.27 | 99.23 | 99.24 | at least 10 months | 99.20 | 99.20 | 99.21 | almost non hygroscopic | 0.13 | COc1cc(OC)c2c(=O)[nH]c(-c3cc(C)c(OCCO)c(C)c3)nc2c1 [Form CS1, 2-[4-(2-hydroxyethoxy)-3,5-dimethylphenyl]-5,7-dimethoxyquinazolin-4(3H)-one] | no form change and obvious crystallity decrease; also recorded: doesn't change after manual grinding | No form change and obvious purity decrease | No form change and obvious purity decrease | No form change; also recorded: doesn't change | Released amount in dissolution test [1]: more than 90%; Stability of the form in the preparations [4]: stable in the preparations; Purity after storage ([5]; 25° C./60% RH, 5 weeks): 99.25; Purity after storage ([5]; 40° C./75% RH, 5 weeks): 99.25 |
| 140 (≈ 378 µM) | 100 (≈ 270 µM) | 160 (≈ 432 µM) | 300 (≈ 810 µM) | 280 (≈ 756 µM) | 380 (≈ 1030 µM) | at least 10 months | 99.10 | 99.06 | 99.04 | at least 10 months | 99.10 | 98.99 | 99.02 | almost non hygroscopic | 0.12 | COc1cc(OC)c2c(=O)[nH]c(-c3cc(C)c(OCCO)c(C)c3)nc2c1 [Form CS4, 2-[4-(2-hydroxyethoxy)-3,5-dimethylphenyl]-5,7-dimethoxyquinazolin-4(3H)-one] | doesn't change after manual grinding; also recorded: no form change and obvious crystalline decrease | No form change and obvious purity decrease | No form change and obvious purity decrease | doesn't change; also recorded: No form change | Purity after storage ([5]; 25° C./60% RH, 4 weeks): 99.05; Purity after storage ([5]; 40° C./75% RH, 4 weeks): 99.04 |
| – | – | – | – | – | – | – | – | – | – | – | – | – | – | – | – | COc1cc(OC)c2c(=O)[nH]c(-c3cc(C)c(OCCO)c(C)c3)nc2c1 [apabetalone, 2-[4-(2-hydroxyethoxy)-3,5-dimethylphenyl]-5,7-dimethoxyquinazolin-4(3H)-one] | – | – | – | – | Inhibition of BRD4 (BRD4 of BET family): can inhibit BRD4 |
